# In patent US20090012119A1, “FLUOROALKYLPYRROLIDINE DERIVATIVE” (DAIICHI SANKYO COMPANY LIMITED, priority 2005, published 2009):
# How the values were obtained:
# [1] = system: S. flexneri, 2A 5503; test: Antibacterial activity (MIC), standard method of Japanese Society of Chemotherapy; assay type: cell-based; details: Shigella flexneri, 2A5503
# Description: (§1) MIC value is also shown for levofloxacin (LVFX), ciprofloxacin (CPFX), and Comparative Compound (compound of Example 1 in the Patent Document 1) for comparison with the MIC value of the compound of the present invention.
# [2] = system: Str. pyogenes, G-36; test: as above; assay type: cell-based; details: Streptococcus pyogenes, G36
# Description: as §1
# [3] = system: S. epidermidis, 56500; test: as above; assay type: cell-based; details: Staphylococcus epidermidis
# Description: as §1
# [4] = system: Pr. vulgaris, 08601; test: as above; assay type: cell-based; details: Proteus vulgaris
# Description: as §1
# [5] = system: S. maltophilia, IID-1275; test: as above; assay type: cell-based; details: Stenotrophomonas maltophilia, IID1275
# Description: as §1
# [6] = system: S. aureus, 870307; test: as above; assay type: cell-based; details: 870307: levofloxacin-resistant methicillin-resistant Staphylococcus aureus
# Description: as §1
# [7] = system: E. coli, NIHJ; test: as above; assay type: cell-based; details: Escherichia coli
# Description: as §1
# [8] = system: S. pneumoniae, J24; test: as above; assay type: cell-based; details: Streptococcus pneumoniae, J24: penicillin resistant pneumococcus (moderate resistance)
# Description: as §1
# [9] = system: Str. faecalis, ATCC-19433; test: as above; assay type: cell-based; details: Enterococcus faecalis, ATCC19433
# Description: as §1
# [10] = system: S. aureus, 209P; test: as above; assay type: cell-based; details: Staphylococcus aureus
# Description: as §1
# [11] = system: Pr. mirabilis, IFO-3849; test: as above; assay type: cell-based; details: Proteus mirabilis, IFO3849
# Description: as §1
# [12] = system: Ser. marcescens, 10100; test: as above; assay type: cell-based; details: Serratia marcescens
# Description: as §1
# [13] = system: Ps. aeruginosa, 32121; test: as above; assay type: cell-based; details: Pseudomonas aeruginosa
# Description: as §1
# [14] = system: Ps. aeruginosa, 32104; test: as above; assay type: cell-based; details: Pseudomonas aeruginosa
# Description: as §1
# [15] = system: 6 week old male Slc:ddY mice; test: Single dose toxicity test, intravenous injection; assay type: in vivo
# Description: The compounds of the present invention were evaluated for their toxicity in a single dose toxicity test by administering the compounds to 6 week old male Slc:ddY mice. The compound was diluted with 0.1 mol/l NaOH/physiological saline, and filtered through Millex GS filter (0.22 μm) for sterilization. The compound was administered at a rate of 10 ml/kg and 0.2 ml/min in a single dose by intravenous injection. The compound of Example 1 in the Patent Document 1 was used for the Comparative Compound as in the case of Test Example 1.
compound,measurement,setting,value
"O=C(O)c1cn(C2CC2)c2cc(N3CCNCC3)c(F)cc2c1=O [CPFX, ciprofloxacin, reference compound]",MIC,[1],0.006 µg/mL
same,MIC,[2],1.56 µg/mL
same,MIC,[3],0.2 µg/mL
same,MIC,[4],≤ 0.003 µg/mL
same,MIC,[5],0.78 µg/mL
same,MIC,[6],> 6.25 µg/mL
same,MIC,[7],≤ 0.003 µg/mL
same,MIC,[8],0.1 µg/mL
same,MIC,[9],0.78 µg/mL
same,MIC,[10],0.1 µg/mL
same,MIC,[11],0.012 µg/mL
same,MIC,[12],0.025 µg/mL
same,MIC,[13],0.025 µg/mL
same,MIC,[14],0.05 µg/mL
"COc1c(N2C[C@H](CF)[C@H](N)C2)c(F)cc2c(=O)c(C(=O)O)cn(C3C[C@@H]3F)c12 (stereo partly shown) [Comparative Compound, reference compound]",MIC,[1],0.006 µg/mL
same,MIC,[2],0.1 µg/mL
same,MIC,[3],0.05 µg/mL
same,MIC,[4],0.012 µg/mL
same,MIC,[5],0.2 µg/mL
same,MIC,[6],0.2 µg/mL
same,MIC,[7],≤ 0.003 µg/mL
same,MIC,[8],0.025 µg/mL
same,MIC,[9],0.1 µg/mL
same,MIC,[10],0.012 µg/mL
same,MIC,[11],0.025 µg/mL
same,MIC,[12],0.05 µg/mL
same,MIC,[13],0.05 µg/mL
same,MIC,[14],0.2 µg/mL
same,Number of dead mice/Total,[15]; Dose 100 mg/kg,1/5
same,Number of dead mice/Total,[15]; Dose 150 mg/kg,2/3
"Cc1c(N2C[C@H](CF)[C@H](N)C2)c(F)cc2c(=O)c(C(=O)O)cn(C3CC3)c12 [Compound No. 1, 7-[(3S,4S)-3-amino-4-fluoromethyl-1-pyrrolidinyl]-1-cyclopropyl-6-fluoro-1,4-dihydro-8-methyl-4-oxoquinoline-3-carboxylic acid]",MIC,[1],≤ 0.003 µg/mL
same,MIC,[2],0.1 µg/mL
same,MIC,[3],0.025 µg/mL
same,MIC,[4],≤ 0.003 µg/mL
same,MIC,[5],0.1 µg/mL
same,MIC,[6],0.2 µg/mL
same,MIC,[7],≤ 0.003 µg/mL
same,MIC,[8],0.025 µg/mL
same,MIC,[9],0.05 µg/mL
same,MIC,[10],0.012 µg/mL
same,MIC,[11],0.012 µg/mL
same,MIC,[12],0.025 µg/mL
same,MIC,[13],0.025 µg/mL
same,MIC,[14],0.05 µg/mL
same,melting point,,160 to 165 °C
"Cc1c(N2C[C@H](CF)[C@H](N)C2)ccc2c(=O)c(C(=O)O)cn(C3CC3)c12 [Compound No. 2, 7-[(3S,4S)-3-amino-4-fluoromethyl-1-pyrrolidinyl]-1-cyclopropyl-1,4-dihydro-8-methyl-4-oxoquinoline-3-carboxylic acid]",MIC,[1],0.006 µg/mL
same,MIC,[2],0.2 µg/mL
same,MIC,[3],0.1 µg/mL
same,MIC,[4],0.006 µg/mL
same,MIC,[5],0.2 µg/mL
same,MIC,[6],0.78 µg/mL
same,MIC,[7],≤ 0.003 µg/mL
same,MIC,[8],0.1 µg/mL
same,MIC,[9],0.2 µg/mL
same,MIC,[10],0.025 µg/mL
same,MIC,[11],0.05 µg/mL
same,MIC,[12],0.05 µg/mL
same,MIC,[13],0.025 µg/mL
same,MIC,[14],0.1 µg/mL
same,melting point,,203 to 205 °C
"Cc1c(N2C[C@H](CF)[C@H](N)C2)c(F)cc2c(=O)c(C(=O)O)cn([C@@H]3C[C@@H]3F)c12 [Compound No. 3, 7-[(3S,4S)-3-amino-4-fluoromethyl-1-pyrrolidinyl]-6-fluoro-1-[(2S,1R)-2-fluorocyclopropyl]-1,4-dihydro-8-methyl-4-oxoquinoline-3-carboxylic acid]",MIC,[1],≤ 0.003 µg/mL
same,MIC,[2],0.05 µg/mL
same,MIC,[3],0.025 µg/mL
same,MIC,[4],≤ 0.003 µg/mL
same,MIC,[5],0.1 µg/mL
same,MIC,[6],0.39 µg/mL
same,MIC,[7],0.006 µg/mL
same,MIC,[8],0.025 µg/mL
same,MIC,[9],0.1 µg/mL
same,MIC,[10],0.006 µg/mL
same,MIC,[11],0.006 µg/mL
same,MIC,[12],0.025 µg/mL
same,MIC,[13],0.025 µg/mL
same,MIC,[14],0.05 µg/mL
same,Number of dead mice/Total,[15]; Dose 100 mg/kg,0/5
same,Number of dead mice/Total,[15]; Dose 150 mg/kg,0/3♭
"CN[C@@H]1CN(c2c(F)cc3c(=O)c(C(=O)O)cn([C@@H]4C[C@@H]4F)c3c2C)C[C@@H]1CF [Compound No. 4, 7-[(3S,4S)-3-fluoromethyl-4-methylaminopyrrolidine-1-yl]-6-fluoro-1-[(2S,1R)-2-fluorocyclopropyl]-1,4-dihydro-8-methyl-4-oxoquinoline-3-carboxylic acid]",MIC,[1],0.006 µg/mL
same,MIC,[2],0.1 µg/mL
same,MIC,[3],0.05 µg/mL
same,MIC,[4],0.006 µg/mL
same,MIC,[5],0.1 µg/mL
same,MIC,[6],0.39 µg/mL
same,MIC,[7],≤ 0.003 µg/mL
same,MIC,[8],0.05 µg/mL
same,MIC,[9],0.1 µg/mL
same,MIC,[10],0.012 µg/mL
same,MIC,[11],0.025 µg/mL
same,MIC,[12],0.05 µg/mL
same,MIC,[13],0.05 µg/mL
same,MIC,[14],0.1 µg/mL
same,Number of dead mice/Total,[15]; Dose 100 mg/kg,0/5
same,Number of dead mice/Total,[15]; Dose 150 mg/kg,1/2
"CN[C@@H]1CN(c2c(F)cc3c(=O)c(C(=O)O)cn(C4CC4)c3c2C)C[C@@H]1CF [Compound No. 5, 1-cyclopropyl-6-fluoro-7-[(3S,4S)-3-fluoromethyl-4-methylaminopyrrolidine-1-yl]-8-methyl-1,4-dihydro-4-oxoquinoline-3-carboxylic acid]",MIC,[1],≤ 0.003 µg/mL
same,MIC,[2],0.1 µg/mL
same,MIC,[3],0.05 µg/mL
same,MIC,[4],0.006 µg/mL
same,MIC,[5],0.05 µg/mL
same,MIC,[6],0.39 µg/mL
same,MIC,[7],≤ 0.003 µg/mL
same,MIC,[8],0.05 µg/mL
same,MIC,[9],0.1 µg/mL
same,MIC,[10],0.012 µg/mL
same,MIC,[11],0.025 µg/mL
same,MIC,[12],0.05 µg/mL
same,MIC,[13],0.05 µg/mL
same,MIC,[14],0.2 µg/mL
same,melting point,,156 to 158 °C
"Cc1c(N2C[C@@H](N)[C@@H](C(F)F)C2)c(F)cc2c(=O)c(C(=O)O)cn([C@@H]3C[C@@H]3F)c12 [Compound No. 6, 7-[(3S,4S)-3-amino-4-difluoromethylpyrrolidine-1-yl]-6-fluoro-1-[(1R,2S)-2-fluorocyclopropyl]-8-methyl-1,4-dihydro-4-oxoquinoline-3-carboxylic acid]",MIC,[1],≤ 0.003 µg/mL
same,MIC,[2],0.05 µg/mL
same,MIC,[3],0.025 µg/mL
same,MIC,[4],0.006 µg/mL
same,MIC,[5],0.05 µg/mL
same,MIC,[6],0.2 µg/mL
same,MIC,[7],≤ 0.003 µg/mL
same,MIC,[8],0.05 µg/mL
same,MIC,[9],0.1 µg/mL
same,MIC,[10],0.012 µg/mL
same,MIC,[11],0.012 µg/mL
same,MIC,[12],0.05 µg/mL
same,MIC,[13],0.05 µg/mL
same,MIC,[14],0.2 µg/mL
same,melting point,,214 to 216 °C
"C[C@H]1COc2c(N3CCN(C)CC3)c(F)cc3c(=O)c(C(=O)O)cn1c23 [LVFX, levofloxacin, reference compound]",MIC,[1],0.025 µg/mL
same,MIC,[2],0.78 µg/mL
same,MIC,[3],0.39 µg/mL
same,MIC,[4],0.012 µg/mL
same,MIC,[5],0.39 µg/mL
same,MIC,[6],> 6.25 µg/mL
same,MIC,[7],0.012 µg/mL
same,MIC,[8],0.78 µg/mL
same,MIC,[9],0.78 µg/mL
same,MIC,[10],0.2 µg/mL
same,MIC,[11],0.05 µg/mL
same,MIC,[12],0.1 µg/mL
same,MIC,[13],0.1 µg/mL
same,MIC,[14],0.2 µg/mL
